Reference: US11754555B2, “Pad for immunochromatographic device and immunochromatographic device, immunochromatographic kit and immunochromatographic detection method using pad” (TANAKA KIKINZOKU KOGYO K.K., priority 2018, dated 2023)

How the values were obtained:
[1] = tested on: inactivated Group A β-hemolytic streptococcus; assay: Visual evaluation of red line on detection part of immunochromatographic device; settings: for Result of Visual Evaluation (After Storage at 50° C. for 24 Hours): device stored at 50° C. for 24 hours, then positive analyte sample 5×10^5 org/mL, 5 minutes; for Result of Visual Evaluation (After 5 Minutes): positive analyte sample 5×10^5 org/mL, 150 μL, member order of FIG. 3, acid content per pad as in Table 1
Experimental: (§1) The immunochromatographic device and the analyte dilution solution produced above were used, and a sample obtained by adding inactivated Group A β-hemolytic streptococcus at 5×10^5 org/mL was used as a positive analyte sample.
The analyte sample in an amount of 150 μL was dropped to the sample droplet receiving part of the device and developed, and a visual evaluation was made after 5 minutes. Any of the following marks was given: “+” (positive) when the red line on the detection part (4) could be visually observed; “++” (strong positive) when the red line could be visually observed clearly; “±” (weak positive) when a light red line could be visually observed; and “−” (negative) when the red line could not be visually observed.
Separately from the above evaluation, the immunochromatographic device produced above were stored at 50° C. for 24 hours, and then the measurement and the visual evaluation were conducted. […]
Immunochromatographic kits were produced and measurement was conducted in the same manners as in Example 1 except that the kind of the acid anhydride in Example 1 was changed to those shown in Table 1.

[2] = Sublimation at 25° C. at 20 Pa (weight change after 12 hours under reduced pressure); format: physicochemical; settings: 1 g acid, reduced pressure 25° C., weight change within or exceeding 5%
Experimental: Whether the acids used in the Examples and the Comparative Examples sublimate at 25° C. at 20 Pa was examined by the following method. First, 1 g of an acid was measured in a glass vial, and the weight was measured after subjecting the acid to reduced pressure at 25° C. at 20 Pa for 12 hours.

[3] = tested on: inactivated Group A β-hemolytic streptococcus; assay: Color intensity of red line on detection part measured with immunochromatoreader
Experimental: as §1
The color intensity of the red line on the detection part (4) five minutes after starting development was measured with an immunochromatoreader (manufactured by Hamamatsu Photonics K.K.). As a result, the color intensity was 83.7 mAbs.
An immunochromatographic kit was produced in the same manner as in Example 1 except that the sample droplet receiving member (1), the acid anhydride containing member (7), the labeling substance retaining member (2), the chromatography medium member (3) having the detection part (4) and the absorption member (5) were pasted to a base material composed of a backing sheet (6) in a manner that the members were linked in this order along the direction of sample development (the order shown in FIG. 1), and the color intensity was measured with an immunochromatoreader (manufactured by Hamamatsu Photonics K.K.). As a result, the color intensity after five minutes was 48.1 mAbs.
An immunochromatographic kit was produced in the same manner as in Example 3 except that “malic acid” was used instead of “bicyclo[2,2,2]oct-7-ene-2,3,5,6-tetracarboxylic dianhydride”, which is the acid anhydride, and the color intensity after five minutes was measured with an immunochromatoreader (manufactured by Hamamatsu Photonics K.K.). As a result, the color intensity was 4.1 mAbs.

[4] = five minutes after starting development, member order of FIG. 3 (acid-containing member downstream of labeling member)

Compound	Result of Visual Evaluation (After Storage at 50° C. for 24 Hours) [1]	Result of Visual Evaluation (After 5 Minutes) [1]	Sublimation at 25° C. at 20 Pa [2]	color intensity of the red line on the detection part (4) [3, 4] [mAbs]	color intensity of the red line on the detection part (4) ([3]; after five minutes, member order of FIG. 1 (acid anhydride member upstream of labeling member)) [mAbs]
O=C1OC(=O)[C@@H]2CC=CC[C@H]12 [Comparative Example 9, cis-4-cyclohexene-1,2-dicarboxylic anhydride]	−	+	A (“A” indicates that the acid did not sublimate)		
CCCCCCCC/C=C\CCCCCCCC(=O)O [compound 6, oleic acid]	−	−			
O=C(O)CN(CCO)CCO [compound 5, N,N-bis(2-hydroxyethyl)glycine]	−	−			
C=C(CC(=O)O)C(=O)O [compound 4, itaconic acid]	−	−			
octadecenylsuccinic anhydride [Reference Example 2]	±	±	A (“A” indicates that the acid did not sublimate)		
O=C(O)CC(O)C(=O)O (stereo not drawn) [compound 3, malic acid]	−	−		4.1	
O=C1CCC(=O)O1 [compound 2, succinic anhydride]	−	++	B (“B” indicates that the acid sublimated)		
O=c1oc(=O)c2cc3c(=O)oc(=O)c3cc12 [Example 2, pyromellitic anhydride]	++	++	A (“A” indicates that the acid did not sublimate)		
O=C1OC(=O)C2C3C=CC(C12)C1C(=O)OC(=O)C31 (stereo not drawn) [Example 1, bicyclo[2,2,2]oct-7-ene-2,3,5,6-tetracarboxylic dianhydride]	++	++	A (“A” indicates that the acid did not sublimate)	83.7	48.1
O=C1OC(=O)C2CC3C(=O)OC(=O)C3CC12 (stereo not drawn) [Example 5, 1,2,4,5-cyclohexanetetracarboxylic dianhydride]	++	++	A (“A” indicates that the acid did not sublimate)		
O=C1CC(C2CC3C(=O)OC(=O)C3c3ccccc32)C(=O)O1 (stereo not drawn) [Example 6, 4-(2,5-dioxotetrahydrofuran-3-yl)-1,2,3,4-tetrahydronaphthalene-1,2-dicarboxylic anhydride]	++	++	A (“A” indicates that the acid did not sublimate)		
N[C@@H](CCC(=O)O)C(=O)O [compound 7, glutamic acid]	−	−			
CC#Cc1ccc2c(c1)C(=O)OC2=O [Example 3, 4-(1-propynyl)phthalic anhydride]	+	+	A (“A” indicates that the acid did not sublimate)		
O=C(ON1C(=O)CCC1=O)c1ccccc1 [Comparative Example 1, N-(benzoyloxy)succinimide]	−	−			
O=C1CC(c2ccccc2)C(=O)O1 (stereo not drawn) [compound 8, phenylsussinic acid anhydride]	−	+	A (“A” indicates that the acid did not sublimate)		
CC(=O)Nc1cccc2c1C(=O)OC2=O [Example 4, 3-acetamidophthalic anhydride]	+	+	A (“A” indicates that the acid did not sublimate)		
